Results from PubChem BioAssay AID1324 (NMMLSC, 2008).
Activity calls are given as the source filed them. No rule for the calls is given here.

Each molecule was assayed against glutathione S-transferase (GST-GSH binding) (assay: GST–glutathione interaction disruption – biochemical, multiplex beads, flow cytometry, HPSMTB buffer, profiling panel (AID 1324;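 also: glutathione beads loaded with GST-green fluorescent protein and no fluorescent Bim peptide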)). Conditions: multiplex bead flow cytometry, MCF.

SMILES	EC50
c1ccc(Nc2cccc(Nc3ccccc3)n2)cc1	inactive
CCN=c1scc(C)n1/N=C/c1ccc(O)c(O)c1O	inactive
COc1ccc(-n2c(=O)c3ccccc3c3ccccc3c2=O)c(OC)c1	inactive
Cc1nc2ncccn2c1-c1csc(Nc2ccc(O)cc2)n1	690 nM

Same assay, conditions: multiplex bead flow cytometry, MCF, active compounds read high, concentration not given here

SMILES	percent span inhibition
COc1cc(NC(=O)c2ccc3c(c2)OCO3)ccc1NC(=O)c1ccco1	inactive
c1ccc2c(N3CCOCC3)nc(N3CCOCC3)nc2c1	inactive
COC(=O)CSc1nccc(-c2cccs2)n1	inactive
CN1CCN(c2ccccc2N)CC1	inactive
COC(=O)C1C2c3ccccc3OC1(C)N=c1s/c(=C/c3cnn(C)c3C)c(=O)n12 (stereo not given)	inactive
Cc1ccc(-c2cc(-c3ccc4c(c3)OCO4)c(C#N)c(N)n2)o1	inactive
COc1ccc(-c2nnc(SCC(=O)Nc3nc4ccccc4s3)n2C)cc1	inactive
COc1cccc2c(SCC(=O)N/N=C/c3ccc(O)c(O)c3)cc(C)nc12	inactive
CCOC(=O)c1cc2c(=O)n3ccccc3nc2n(Cc2ccco2)c1=NC(=O)c1ccccc1OC	inactive
COc1cc(/C=N/Nc2nc3c(c(=O)n(C)c(=O)n3C)n2Cc2ccccc2)ccc1OC(=O)c1ccco1	inactive
S=C(NCCc1ccccc1)NCCc1ccccc1	inactive
Nc1c(C(=O)NCC2CCCO2)sc2nc3c(c(-c4ccco4)c12)CC/C3=C\c1ccco1 (stereo not given)	inactive
COc1cc2c(cc1OC)C(c1ccccc1F)OC(=O)C2 (stereo not given)	inactive
Cc1ccc(-c2cc(C(=O)Nc3ccccn3)c3ccccc3n2)o1	inactive
O=C(OCC(=O)c1ccc[nH]1)c1ccccc1	inactive
CCN1CCN(c2cc(C)c3cc(NC(=S)N4CC(C)CC(C)C4)ccc3n2)CC1 (stereo not given)	inactive
COc1cc(N=c2ssnc2Cl)c(OC)cc1Cl	inactive
O=C(CSc1ccc(-c2ccccc2)nn1)NCc1ccco1	inactive
OC(COc1ccc2cc(Br)ccc2c1)CN1CCOCC1 (stereo not given)	inactive
CCN1CCN(c2cc(C)c3cc(NC(=S)N4CCCCC4)ccc3n2)CC1	inactive
COc1ccc(S(=O)(=O)NCCSc2ccccc2)cc1OC	inactive
O=C(Nc1ccccc1)Nc1ccc2ncoc2c1	inactive
O=C(COc1ccc(Br)cc1CNC1CCCCC1)NCCc1ccccc1	inactive
O=C1NC(=S)S/C1=C/c1ccc(N2CCOCC2)o1	inactive

SMILES	percent span inhibition
CCCCCCc1cc2cc(C(=O)Nc3ccccc3)c(=O)oc2cc1O	inactive
N/C(Cc1ccc(Cl)c(Cl)c1)=N\OC(=O)c1cccs1	inactive
Cc1c(NC2=C(Cl)C(=O)N(c3ccccc3Cl)C2=O)c(=O)n(-c2ccccc2)n1C	inactive
Cc1ccc(Nc2nc(C)cs2)cc1	inactive
C/C(=N\NC(=O)COc1ccc(C(C)(C)C)cc1)c1ccc2c(c1)OCCO2	inactive
CN(C)c1cccc(NC(=O)C2(C)CC2(Cl)Cl)c1 (stereo not given)	inactive
COc1ccc(NC(=O)/C(Cl)=C(/Cl)S(=O)Cc2ccccc2)cn1 (stereo not given)	inactive
O=C1/C(=C\c2ccco2)NC(=S)N1c1ccccc1	inactive
O=C(CSc1ccc2nnc(-c3ccncc3)n2n1)Nc1nccs1	inactive
Cn1c(N)c(C(=O)COC(=O)c2cc(-c3ccco3)nc3ccccc23)c(=O)n(C)c1=O	inactive
CCN(CC)c1ccc(NC(=O)COc2ccccc2C#N)cc1S(=O)(=O)Nc1ccccc1OC	inactive
Cc1c(NC2=C(Cl)C(=O)N(c3ccccc3)C2=O)c(=O)n(-c2ccccc2)n1C	inactive
O=C(O)CCN1C(=O)/C(=C\c2ccc(-c3nc4ccccc4s3)o2)SC1=S	inactive
Cc1ccc(C(=O)NNC(=O)c2ccc3ncccc3c2)cc1	inactive
CC1(C)Cc2c(ccc3ccccc23)/C(=C/C(=O)N2CCCCC2)N1	inactive
CCCCNC(=O)c1ccc2nc(-c3ccco3)c(-c3ccco3)nc2c1	inactive
Cc1ccc(/C=N/NC(=O)CSc2nnc(-c3ccc(Cl)cc3)n2-c2ccccc2)o1	inactive
COc1ccc(NC(=O)c2ccc3c(c2)NC(=O)CS3)cc1S(=O)(=O)Nc1ccc(Br)cc1	inactive
CN(C)CCNC(=O)C(=O)C1C(=O)Nc2ccccc21 (stereo not given)	inactive
O=C(c1cnccn1)N(Cc1cccs1)C1(C(=O)NC2CCCCC2)CCCCC1	inactive
CCOC(=O)C1CCCN(c2ncnc3c2cnn3-c2cccc(C)c2)C1 (stereo not given)	inactive
Fc1cccc(Nc2nc(-c3ccncc3)nc3ccccc23)c1	inactive
Cc1ccc(/C=C2/NC(=O)N(Cc3ccccc3)C2=O)o1	inactive
O=C(Cn1cncc1-c1ccc([N+](=O)[O-])cc1)Nc1ccccc1F	inactive

SMILES	percent span inhibition
Cc1ccc(-c2nc3c(c(=O)[nH]c(=O)n3Cc3ccccc3)n2Cc2ccccc2)o1	inactive
CC1CC2=C(NC(=S)NC2c2ccccc2F)/C(=C/c2ccccc2F)C1 (stereo not given)	inactive
CCC(=O)OCCNc1cc(Sc2nc3ccccc3s2)c2nonc2c1[N+](=O)[O-]	inactive
Cc1ccc(-c2cc(C(=O)Nc3cccnc3)c3ccccc3n2)o1	inactive
CCOCCCn1c(N)c(C(=O)Nc2sc3c(c2C(=O)OC)CCCC3)c2nc3ccccc3nc21	inactive
CCOC(=O)/C(=C\c1ccc(Cl)cc1)c1nc2sc(C)c(C)c2c(=O)[nH]1	inactive
O=C(NC1=NCCS1)NC12CC3CC(CC(C3)C1)C2	inactive
CN(/N=C/c1cccnc1)C1=NS(=O)(=O)c2ccccc21	inactive
Fc1ccc(/C=C2\CCCC3=C2NC(=S)NC3c2ccc(F)cc2)cc1 (stereo not given)	inactive
Brc1ccc2ncnc(Nc3ccc(N4CCOCC4)cc3)c2c1	inactive
COc1ccc(C2(NC(C)=O)CCN(C(=O)c3ccco3)CC2)cc1	inactive
Cc1nc(=S)c2ccccc2[nH]1	inactive
CNC(=O)c1sc(-c2ccccn2)nc1C	inactive
O=C(c1cnccn1)N1CCN(c2ccccc2F)CC1	inactive
O=C(COc1ccccc1)Nc1ccc2c(c1)Cc1cc(NC(=O)COc3ccccc3)ccc1-2	inactive
Cc1ccc(C(NC(=O)C(C)C)c2cc([N+](=O)[O-])c3cccnc3c2O)cc1 (stereo not given)	inactive
CCOC(=O)CSC1=NC(=O)/C(=C\c2ccc(OC(C)=O)cc2)S1	inactive
O=C1CCc2cc(S(=O)(=O)NCCCC(=O)N3CCN(Cc4ccc5c(c4)OCO5)CC3)ccc2N1	inactive
Cc1cc(C)nc(/N=c2/ssnc2Cl)c1	inactive
O=C(/C=C/c1c(F)cccc1Cl)Nc1ccncc1	inactive
Cc1cccc(-n2c(O)c(/C=N/N3CCOCC3)c(=O)[nH]c2=S)c1	inactive
O=C(COc1ccccc1)N1CCN(c2ncnc3c2cnn3-c2ccccc2)CC1	inactive
CCOC(=O)C1(Cc2cccc(OC)c2)CCN(Cc2cccc(OC)c2OC)CC1	inactive
CCSc1ncc(Cl)c(C(=O)Nc2sc3c(c2C(=O)NCc2cccnc2)CCCC3)n1	inactive

SMILES	percent span inhibition
COc1ccc(NC(=O)c2cc(-c3ccc(C)o3)nc3ccccc23)cc1OC	inactive
CCCCC(C(=O)OCC)C(N)Cc1ccc(F)cc1 (stereo not given)	inactive
COc1ccc(CN(CC(=O)NC2CCCC2)C(=O)CCC(=O)Nc2cc(C)on2)cc1	inactive
CS(=O)(=O)NN1C(=O)c2ccccc2NC1c1cccc2cccnc12 (stereo not given)	inactive
Cc1cccc(-n2c(-c3ccncc3)n[nH]c2=S)c1	inactive
Cc1ccc(-c2cc(C(=O)OCC(=O)N(C)C3CCS(=O)(=O)C3)c3ccccc3n2)o1 (stereo not given)	inactive
Cc1ccc(S(=O)(=O)NC(=O)COc2ccccc2C)cc1	inactive
CCc1ccc(NC(=O)CC2NCCNC2=O)cc1 (stereo not given)	inactive
Cc1[nH]n(C(N)=S)c(=O)c1N=Nc1ccc(S(=O)(=O)N2CCCCCC2)cc1	inactive
CC(C)c1ccc(/C=N/NC(=O)c2ccccc2Cl)cc1	inactive
COc1ccc(N2C(=O)/C(=C/c3cccs3)NC2=S)cc1	inactive
COc1ccccc1-n1c(SCC(=O)N2CCc3ccccc32)nc2c(c1=O)SCC2	inactive
N#Cc1cccc(N=c2ssnc2Cl)c1	inactive
COC(=O)Cc1ccc(NC(=S)N2CCN(c3cccc(O)c3)CC2)cc1	inactive
O=C(Nc1nnc(C2CC2)s1)C1Cc2ccccc2CN1S(=O)(=O)c1ccccc1F (stereo not given)	inactive
CN(C(=O)NC1CCCCC1)c1ccccc1	inactive
Cc1ccc(-c2cc(-c3ccc(Cl)cc3)c(C#N)c(N)n2)o1	inactive
CCN1CCN(CC(=O)c2c[nH]c3ccc(C)cc23)CC1	inactive
O=c1[nH]c2ccc(N=Cc3c(O)ccc4cc(Br)ccc34)cc2[nH]1	inactive
Cc1ccc(NC(=S)N2CCn3cccc3C2c2cccnc2)cc1 (stereo not given)	inactive
CCN(CC)S(=O)(=O)c1cccc(C(=O)N/N=C/c2ccc(O)c(O)c2O)c1	inactive
CCOc1cc(S(=O)(=O)N2CCCCC2)ccc1F	inactive
Cc1nnc(Sc2cc(NCCCO)c([N+](=O)[O-])c3nonc23)s1	inactive
Cc1ccc2nc3c(cc(C(N)=S)c(=N)n3CCCOC(C)C)c(=O)n2c1	inactive
